From patent publication US9788552B2, “Use of a natural grape marc extract in order to stimulate the natural defenses of plants” (CENTRE NATIONAL DE LA RECHERCHE SCIENTIFIQUE—CNRS, priority 2010, dated 2017)

System: tobacco leaf
Assay: Tobacco leaf infiltration tests, macroscopic symptoms under white light
Assay type: in vivo
Conditions: 50 μl, 8 days after infiltration
Experimental: Various tobacco leaf infiltration tests were carried out with 50 μl of solution as follows: Eight days after infiltration, macroscopic symptoms were observed under white light and under UV light (wavelength=312 nm). In the figures, the numbers correspond to the spot of infiltration of the test of the same number.

Row | Compound | necrosis in infiltrated foliar tissues (2 mM, white light (Test 7, positive control)) | chlorosis or necrosis at the infiltrated sites (10 mM, white light (Test 6))
1 | O=C(O)c1ccccc1O [Salicylic acid, salicylic acid] | causes necrosis | 
2 | CC(N)CC(=O)O (stereo not drawn) [BABA, β-aminobutyric acid] |  | do not induce chlorosis or necrosis
